According to patent US10532988B2, “Crystalline forms of neurotrophin mimetic compounds and their salts” (PharmatrophiX, Inc., priority 2009, dated 2020):
Structures can show the parent of a compound that is named as a salt. Where two headings read alike, the source gives them in different places.

What was measured:
[1] = Solubility in water (incremental solvent addition, visual observation); settings: for solubility: thermodynamic from solid
Description: Milligram size quantities of each sample were placed into a vial. Water was added and the vials were stirred for a few minutes, followed by visual observation for remaining solids. The solvent was incrementally added until the solids were dissolved, or a maximum volume of solvent was added and the experiment was terminated.

[2] = Hygroscopicity - dynamic vapor sorption (DVS); type: physicochemical; settings: for mass greater than the original value at 0% RH after desorption: DVS desorption phase, end at 0% RH; for RH up to which the sample did not adsorb much moisture (rapid sorption above): DVS sorption phase from 0% RH; for moisture sorption at 95% RH / moisture sorption at 90% RH: 25° C.
Description: Hygroscopicity—Dynamic Vapor Sorption (DVS):
Samples were analyzed using an automated dynamic vapor sorption analyzer. The sample (about 1-10 mg) was dried in the instrument 0% RH for 6 hours.

[3] = Stability study of salts and free base under stress, HPLC total area normalization; type: physicochemical
Description: The scaled up salts and free base were challenged by heat (solids stored at 25 and 60° C. for 1 week), oxidation (solids stored in oxygen headspace at 25° C. for 1 week), light (solids exposed to ≥1×ICH UV confirmatory conditions), and solutions (HPLC diluent) at 25 and 40° C. for 1 week. These samples were analyzed, along with unstressed controls, by HPLC to characterize their stability.
Crystalline forms (i.e., salts and free base) of the present invention were analyzed by total area normalization (TAN). The samples were dissolved in 1:1 Acetonitrile (ACN):Water (H2O) at a concentration of 0.5 mg/mL.
Stressed samples were analyzed using HPLC to determine their impurity profiles.
The stability results shown in Table 10 represent the averages of two injections of duplicate sample preparations.

[4] = Pharmacokinetic study of salt forms in rat plasma and brain after oral gavage; type: in vivo; settings: for AUC%Extrap / AUCINF / AUCall / Cmax / T1/2 / Tmax / Brain:Plasma Ratio / Maximum Brain Level / Kp at 8 h / AUC / AUC(0-inf) / half-life: male rats, single 25 mg/kg free base by oral gavage; for Brain:Plasma Ratio / Maximum Brain Level / Kp at 8 h: brain at 1, 3 and 8 hours; for Kp at 8 h: brain and plasma, read-out: Brain:Plasma Ratio
Description: The objective of this study was to provide preliminary pharmacokinetic information regarding the exposure of different salt forms of LM11A-31 in rat plasma and brain when dosed by oral gavage. Groups consisting of nine male rats received single doses of 25 mg/kg free base by oral gavage. Plasma samples were obtained from three rats per timepoint after administration (0.5, 1, 2, 3, 4, and 8 hours) and brain samples were collected at 1-, 3-, and 8-hour terminations (three rats per time point).
The samples were analyzed by LC-MS/MS to determine the plasma and brain concentrations of the test article. Pharmacokinetic analysis of the plasma concentration data was conducted using noncompartmental analysis with WinNonlin Version 4.1.

[5] = Stability study, qualitative proton NMR of stressed samples; type: physicochemical; settings: heat stress (solids stored at 60° C.)
Description: To confirm the little or no degradation observed in the HPLC stability study, some samples (solids stored at 60° C. and oxidation) of four of the salts and free base were further analyzed by proton NMR (i.e., HNMR). The analysis was qualitative.

[6] = Oxidation Ambient (oxygen headspace, 25° C., 1 week)
[7] = Photo Stability - Exposed (UV, ICH confirmatory conditions)
[8] = Solution (water and acetonitrile 1:1) - 40 C., 1 week
[9] = Solution (water and acetonitrile 1:1) - Ambient, 1 week

Compound	mass greater than the original value at 0% RH after desorption [2]	RH up to which the sample did not adsorb much moisture (rapid sorption above) [2]	moisture sorption at 95% RH ([2]; DVS sorption phase)	HPLC Total Area Normalization - Area % Purity [3, 6]	HPLC Total Area Normalization - Area % Purity ([3]; Photo Stability - Dark Control)	HPLC Total Area Normalization - Area % Purity [3, 7]	HPLC Total Area Normalization - Area % Purity ([3]; Solid State - 60 C., 1 week)	HPLC Total Area Normalization - Area % Purity ([3]; Solid State - Ambient, 1 week)	HPLC Total Area Normalization - Area % Purity [3, 8]	HPLC Total Area Normalization - Area % Purity [3, 9]	AUC%Extrap ([4]; plasma)	AUCINF ([4]; plasma)	AUCall ([4]; plasma)	Cmax ([4]; plasma)	T1/2 ([4]; plasma)	Tmax ([4]; plasma)	Maximum Brain Level [4]	overall hygroscopicity (in words) ([2]; DVS)	solubility [1]	also measured
2-amino-3-methyl-N-(2-morpholinoethyl)-pentanamide Disulfate	about 4 wt %	60 % RH	140 wt %	99.97 Area %	99.97 Area %	99.94 Area %	99.98 Area %	99.98 Area %	99.75 Area %	99.90 Area %	5.26%	410 ng·h/mL	416 ng·h/mL	413 ng/mL	66 min	30 min	77 ng/g tissue			solubility in water ([1]; ambient temperature): > 3; Brain:Plasma Ratio [4]: 0.6-1.8; overall PK properties compared with the free base ([4]; rat, oral gavage): better PK properties than the free base; exposure (AUC and Cmax) compared with the free base ([4]; rat, oral gavage, plasma): higher exposure
CCC(C)C(N)C(=O)NCCN1CCOCC1.O=C(O)C(=O)O (centres unmarked) [Monooxalate, 2-amino-3-methyl-N-(2-morpholinoethyl)-pentanamide Monooxalate]		50 % RH	1.5 wt %															did not take up much water		
CCC(C)C(N)C(=O)NCCN1CCOCC1 (centres unmarked) [di-HCl salt, 2-amino-3-methyl-N-(2-morpholinoethyl)-pentanamide]	about 5 wt %	20 % RH	140 wt %															quite hygroscopic	> 30 mg/mL	
2-amino-3-methyl-N-(2-morpholinoethyl)-pentanamide Monoedisylate		80 % RH		99.95 Area %	99.97 Area %	99.86 Area %	99.95 Area %	99.79 Area %	99.90 Area %	999.81 Area %	1.52%	243 ng·h/mL	247 ng·h/mL	284 ng/mL	42.5 min	30 min	98 ng/g tissue			crude solubility in water [1]: ≤ 14 mg/mL; moisture sorption at 90% RH ([2]; DVS sorption phase): 85 wt %; Brain:Plasma Ratio [4]: 1.4-3.3
CCC(C)C(N)C(=O)NCCN1CCOCC1.CS(=O)(=O)O.CS(=O)(=O)O (centres unmarked) [Dimesylate, 2-amino-3-methyl-N-(2-morpholinoethyl)-pentanamide Dimesylate]	about 3 wt %	55 % RH	110 wt %																≥ 28 mg/mL	
CCC(C)C(N)C(=O)NCCN1CCOCC1.Cc1ccc(S(=O)(=O)O)cc1.Cc1ccc(S(=O)(=O)O)cc1 (centres unmarked) [Ditosylate, 2-amino-3-methyl-N-(2-morpholinoethyl)-pentanamide Ditosylate]		80 % RH		99.92 Area %	99.94 Area %	99.93 Area %	99.94 Area %	99.82 Area %	99.91 Area %	99.89 Area %	1.45%						120 ng/g tissue		0.5 to 0.7 mg/mL	moisture sorption at 90% RH ([2]; DVS sorption phase): 30 wt %; Kp at 8 h ([4]; rat): 1 to 5.7; AUC ([4]; rat, plasma): 295 ng·h/mL; AUC(0-inf) ([4]; rat, plasma): 290 ng·h/mL; half-life ([4]; rat, plasma): 37.8 min; Cmax ([4]; rat, plasma, read-out: Cmax): 296 ng/mL; Tmax ([4]; rat, plasma, read-out: Tmax): 30 min
CCC(C)C(N)C(=O)NCCN1CCOCC1.O=S(=O)(O)c1ccc2ccccc2c1.O=S(=O)(O)c1ccc2ccccc2c1 (centres unmarked) [Dinapsylate, 2-amino-3-methyl-N-(2-morpholinoethyl)-pentanamide Dinapsylate]		about 80 % RH		99.81 Area %	99.85 Area %	99.82 Area %	99.87 Area %	99.90 Area %	99.96 Area %	99.87 Area %	3.44%	280 ng·h/mL	270 ng·h/mL	335 ng/mL	114 min	30 min	123 ng/g tissue	did not appear deliquescent		water taken up at high humidity ([2]; DVS, high humidity, no equilibrium at the highest humidity): 3 to 4 wt %; overall PK properties compared with the free base ([4]; rat, oral gavage): better PK properties than the free base; terminal plasma half-life compared with the free base ([4]; rat, oral gavage, plasma): longer terminal plasma half-life
CC[C@H](C)[C@H](N)C(=O)NCCN1CCOCC1 (stereo in doubt) [Free base, 2-amino-3-methyl-N-(2-morpholinoethyl)-pentanamide]	original weight	45 % RH	96 wt %	99.97 Area %	99.97 Area %	99.98 Area %		100 Area %	99.89 Area %		4.81%						105 ng/g tissue		> 30 mg/mL	degradation after heat stress by proton NMR [5]: slight degradation; moisture adsorbed from 45% to 50% RH ([2]; DVS sorption phase, 45% to 50% RH): ~10 wt %; Kp at 8 h ([4]; rat): 2 to 3.5; AUC ([4]; rat, plasma): 321 ng·h/mL; AUC(0-inf) ([4]; rat, plasma): 316 ng·h/mL; half-life ([4]; rat, plasma): 63 min; Cmax ([4]; rat, plasma, read-out: Cmax): 371 ng/mL; Tmax ([4]; rat, plasma, read-out: Tmax): 30 min
2-amino-3-methyl-N-(2-morpholinoethyl)-pentanamide Digluconate	about 4 wt %	45 % RH	110 wt %																	
